Data taken from patent US11298314B2, “Injectable composition for localized fat reduction without pain, edema, and side effects, and method for preparing same” (AMI PHARM CO., LTD., priority 2017, dated 2022).

Legend:
paw of the rats = assay: Rat paw edema; assay type: in vivo, Sprague Dawley rats; settings: for degree of edema in words: 2 hours after administration, rat paw; for degree of edema, 1 hour after administration / degree of edema, 2 hours after administration / degree of edema, Immediately after administration: 0.1 ml into rat paw
Experimental: (§1) To evaluate the degree of edema, each test compositions described above were injected into the paw of the rats. Specifically, male Sprague Dawley rats (6 weeks old) were purchased and used after one week of adaptation. The rats (body weight: 170˜200 g) were randomly selected and the thickness of the rat paw were measured with a caliper before the administration of the test compositions. In order to observe the edema, 0.1 ml of PBS and the various test compositions were administered to the paws of the rats. Measurements of the […] were performed by a caliper immediately before the injection, immediately after the injection, and 1 or 2 hours after the injection. In addition, when the thickness was measured, the skin lesion of the injection site was observed by photographing the sole of the paw (using a 4×4 cm scale).
The degree of edema was evaluated as 0 to 4 grades.

[1] = Formulation stability of PPC injectable preparations: property, transparency, particle size, pH; settings: for bile acid/PPC molar ratio below which a substantially stable formulation did not occur: PPC 5.0%; for bile acid concentration at which stable injectable preparations can be made: based on PPC 5.0%
Experimental: The particle size was measured using a nano particle size analyzer (Microtrac Wave, MICROTRACT, USA). […] The transparency was measured using a spectrophotometer (CM-3600d, KONICA MINOLTA, JAPAN). The pH was measured with a pH meter (ST3100, OHAUS, GERMANY), and the isotonicity was measured with an osmotic pressure meter (Vapro 5600, Elitech Group, Tokyo, Japan), and viscosity was analyzed using a viscometer (Digital Viscometer CL-2, CAS, Korea).
The washed and sterilized preparation tank was charged with the water for injection (at room temperature), and phosphatidylcholine (PPC) and benzyl alcohol were added thereto, and the mixture was stirred at 200 RPM for 2 hours under the condition of nitrogen pressure, shading and room temperature. After the completion of stirring, the mixture was transferred to an ultra-high pressure homogenizer (Nano Disperser NLM100, Ilshin Autoclave, Korea) with a nitrogen pressure. Ultra-high pressure homogenization (dispersion) was carried out at 12,000 psi for 7 cycles, and the particles were finely pulverized. Then, the pH was adjusted. After filtration through a 0.2 μm filter, the vial was filled and sealed.
Specifically, the water for injection was put into the preparation tank which was cleaned and sterilized (room temperature), and sodium hydroxide was added to the water for injection. Then deoxycholic acid and benzyl alcohol were added, stirred and dissolved. Then, phosphatidylcholine was added thereto, and the mixture was stirred at 200 RPM for about 24 hours under shading, sealing, room temperature (25° C.), and nitrogen pressure. After completion of the stirring, the pH was adjusted (if necessary, with additional sodium hydroxide or hydrochloric acid), and it was filtered through a 0.2 μm filter, and filled into the vial and sealed.
Then glycocholic acid and benzyl alcohol were added, stirred and dissolved. Then, phosphatidylcholine was added thereto, and the mixture was stirred at 200 RPM for about 24 hours under shading, sealing, room temperature (25° C.), and nitrogen pressure. After completion of the stirring, the pH was adjusted (if necessary, with additional sodium hydroxide or 0.001-0.6% of hydrochloric acid), and it was filtered through a 0.2 μm filter, and filled into the vial and sealed.
The formulation stability of the PPC injectable compositions solubilized with glycocholic acid (GCA) in Tables 3 and 4 was evaluated immediately after the preparation and 30 days after the preparation (refrigerated storage).

3T3-L1 adipocytes = assay: Adipocyte (3T3-L1) reducing effect, MTT assay; assay type: cell-based; settings: 24 to 96 hours, various concentrations
Experimental: Tests were performed to compare the adipocyte reducing activity of the PPC single composition and the PPC composition solubilized with bile acids. Differentiated 3T3L-1 adipocyte lines were used to observe adipocyte reduction activity, and cell viability was monitored by MTT assay. […] Materials and methods employed in the following experiments are described below. In the following, % of the composition refers to % (w/v).
The specific test methods are as follows. […] The cells were washed twice with PBS, treated with MTT reagent (50 μl) and left at 37° C. for 2 hours. After removing the supernatant, MTT formazan crystals were dissolved in DMSO and the absorbance was measured at 540 nm using a microplate reader.
The 3T3-L1 adipocyte (ATCC) was cultured in Dulbecco's modified eagle medium (DMEM) (Invitrogen) supplemented with 10% fetal bovine serum, 100 units/ml penicillin and 100 μg/ml streptomycin under the condition of 5% CO2 and 37° C. […] Subsequently, the medium was replaced with DMEM medium containing 1 μg/ml insulin (Sigma), and the culture medium was maintained and changed every 2 to 3 days until the degree of differentiation reaches maximum. If it took more than 7 days, the cells were kept in normal DMEM culture medium until starting the tests. […] After the cells were incubated for 3 hours under the condition of 37° C. and 5% CO2, the MTT solution was removed.

sole of the rat paws = assay: Measurement of skin lesion (erythema) on rat paw; assay type: in vivo, Sprague Dawley rats; settings: for skin lesion (erythema) in words: 2 hours after administration;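 for grade of skin lesion (erythema), 1 hour after administration: grades − to ++++ mean no to extremely severe erythema versus before injection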;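 for grade of skin lesion (erythema), 2 hours after administration: grades − to ++++ mean no to extremely severe erythema versus before injection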;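 for grade of skin lesion (erythema), Immediately after administration: grades − to ++++ mean no to extremely severe erythema versus before injection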
Experimental: as §1
The grades of skin lesion were evaluated as 0 to 4 grades.

[2] = tested on: tissues of the injected area (rat paw); assay: H&E staining histological test (inflammation) of injected rat paw; assay type: in vivo, Sprague Dawley rats; settings: for Inflammation (H&E), BA % (w/v) 1.0: bile acid single composition 1.0% (w/v); for Inflammation (H&E), BA % (w/v) 2.5: bile acid single composition 2.5% (w/v); for Inflammation (H&E), BA % (w/v) 5.0: bile acid single composition 5.0% (w/v); for degree of inflammation (H&E) in words: rats sacrificed at 3 hours, injected paw
Experimental: The tissues of the injected area were dissected, fixed with 10% formalin, and then the specimen was prepared and images were captured using an optical microscope. The degree of inflammation was evaluated as follows.

inguinal fat pad = settings: 0.2 ml s.c. once into inguinal fat pad, 8 days post-injection
[3] = bile acid single composition 1.0% (w/v)
[4] = bile acid single composition 2.5% (w/v)
[5] = bile acid single composition 5.0% (w/v)
[6] = bile acid single composition 7.5% (w/v)

Row | SMILES | degree of edema, 1 hour after administration (paw of the rats; [3]) | degree of edema, 2 hours after administration (paw of the rats; [3]) | degree of edema, Immediately after administration (paw of the rats; [3]) | degree of edema, 1 hour after administration (paw of the rats; [4]) | degree of edema, 2 hours after administration (paw of the rats; [4]) | degree of edema, Immediately after administration (paw of the rats; [4]) | degree of edema, 1 hour after administration (paw of the rats; [5]) | degree of edema, 2 hours after administration (paw of the rats; [5]) | degree of edema, Immediately after administration (paw of the rats; [5]) | degree of edema, 1 hour after administration (paw of the rats; [6]) | degree of edema, 2 hours after administration (paw of the rats; [6]) | degree of edema, Immediately after administration (paw of the rats; [6]) | bile acid/PPC molar ratio below which a substantially stable formulation did not occur [1] | bile acid concentration at which stable injectable preparations can be made [1] [%] | grade of skin lesion (erythema), 1 hour after administration (sole of the rat paws; [3]) | grade of skin lesion (erythema), 2 hours after administration (sole of the rat paws; [3]) | grade of skin lesion (erythema), Immediately after administration (sole of the rat paws; [3]) | grade of skin lesion (erythema), 1 hour after administration (sole of the rat paws; [4]) | grade of skin lesion (erythema), 2 hours after administration (sole of the rat paws; [4]) | grade of skin lesion (erythema), Immediately after administration (sole of the rat paws; [4]) | further results
1 | C[C@H](CCC(=O)NCCS(=O)(=O)O)[C@H]1CC[C@H]2[C@@H]3[C@@H](O)C[C@@H]4C[C@H](O)CC[C@]4(C)[C@H]3CC[C@]12C [TUDCA, 2-[[(4R)-4-[(3R,5S,7S,8R,9S,10S,13R,14S,17R)-3,7-dihydroxy-10,13-dimethyl-2,3,4,5,6,7,8,9,11,12,14,15,16,17-tetradecahydro-1H-cyclopenta[a]phenanthren-17-yl]pentanoyl]amino]ethanesulfonic acid] | + (mild edema [+, (the degree of swelling was 1-20% compared to before the injection)]) | + (mild edema [+, (the degree of swelling was 1-20% compared to before the injection)]) | ++ (moderate edema [++, (the degree of swelling was 20-40% compared to before the injection)]) | + (mild edema [+, (the degree of swelling was 1-20% compared to before the injection)]) | + (mild edema [+, (the degree of swelling was 1-20% compared to before the injection)]) | ++ (moderate edema [++, (the degree of swelling was 20-40% compared to before the injection)]) | + (mild edema [+, (the degree of swelling was 1-20% compared to before the injection)]) | ++ (moderate edema [++, (the degree of swelling was 20-40% compared to before the injection)]) | ++ (moderate edema [++, (the degree of swelling was 20-40% compared to before the injection)]) | ++ (moderate edema [++, (the degree of swelling was 20-40% compared to before the injection)]) | ++ (moderate edema [++, (the degree of swelling was 20-40% compared to before the injection)]) | ++ (moderate edema [++, (the degree of swelling was 20-40% compared to before the injection)]) | less than 1.29 | ≥ 4.0 | − | − | − | − | − | − | degree of edema in words (paw of the rats; listed as TUCA 1.0%): Mild; degree of edema in words (paw of the rats; listed as TUCA 2.5%): Mild; degree of edema in words (paw of the rats; listed as TUDCA 1.0%): mild; degree of edema in words (paw of the rats; listed as TUDCA 2.5%): mild; degree of edema in words (paw of the rats; listed as TUDCA 5.0%): moderate; degree of edema in words (paw of the rats; listed as TUDCA 7.5%): Moderate; adipocyte viability / adipocyte-reducing activity (3T3-L1 adipocytes): inhibits the adipocyte apoptosis and degradation; grade of skin lesion (erythema), 1 hour after administration (sole of the rat paws; [5]): −; grade of skin lesion (erythema), 2 hours after administration (sole of the rat paws; [5]): −; grade of skin lesion (erythema), Immediately after administration (sole of the rat paws; [5]): −; grade of skin lesion (erythema), 1 hour after administration (sole of the rat paws; [6]): −; grade of skin lesion (erythema), 2 hours after administration (sole of the rat paws; [6]): −; grade of skin lesion (erythema), Immediately after administration (sole of the rat paws; [6]): −; Inflammation (H&E), BA % (w/v) 1.0 ([2]; injected rat paw): −; Inflammation (H&E), BA % (w/v) 2.5 ([2]; injected rat paw): −; Inflammation (H&E), BA % (w/v) 5.0 ([2]; injected rat paw): −; Inflammation (H&E), BA % (w/v) 7.5 ([2]; bile acid single composition 7.5% (w/v), injected rat paw): +; degree of inflammation (H&E) in words [2]: Mild
2 | CC(C)NCC(O)c1ccc(O)c(O)c1 (stereo not shown) [Isuprel] |  |  |  |  |  |  |  |  |  |  |  |  |  |  |  |  |  |  |  |  | histological change of adipocytes in fat tissue (inguinal fat pad): size of the adipocytes was reduced
3 | C[C@H](CCC(=O)O)[C@H]1CC[C@H]2[C@@H]3[C@H](O)C[C@@H]4C[C@H](O)CC[C@]4(C)[C@H]3CC[C@]12C [CDCA] | +++ (severe edema [+++, (the degree of swelling was 40-60% compared to before the injection)]) | +++ (severe edema [+++, (the degree of swelling was 40-60% compared to before the injection)]) | ++ (moderate edema [++, (the degree of swelling was 20-40% compared to before the injection)]) | +++ (severe edema [+++, (the degree of swelling was 40-60% compared to before the injection)]) | ++++ (extremely severe edema [++++, (the degree of swelling was 60% or more compared to before the injection)]) | ++ (moderate edema [++, (the degree of swelling was 20-40% compared to before the injection)]) | ++++ (extremely severe edema [++++, (the degree of swelling was 60% or more compared to before the injection)]) | ++++ (extremely severe edema [++++, (the degree of swelling was 60% or more compared to before the injection)]) | ++ (moderate edema [++, (the degree of swelling was 20-40% compared to before the injection)]) | ++++ (extremely severe edema [++++, (the degree of swelling was 60% or more compared to before the injection)]) | ++++ (extremely severe edema [++++, (the degree of swelling was 60% or more compared to before the injection)]) | ++ (moderate edema [++, (the degree of swelling was 20-40% compared to before the injection)]) | less than 0.89 | ≥ 2.2 | ++ | ++ | + | ++++ | ++++ | ++ | degree of edema in words (paw of the rats; listed as CDCA 1.0%): Moderate; degree of edema in words (paw of the rats; listed as CDCA 2.5%): “severe” and “extremely severe”; skin lesion (erythema) in words (sole of the rat paws; listed as CDCA 1.0%): Moderate; skin lesion (erythema) in words (sole of the rat paws; listed as CDCA 2.5%): “severe” and “extremely severe”; grade of skin lesion (erythema), 1 hour after administration (sole of the rat paws; [5]): ++++; grade of skin lesion (erythema), 2 hours after administration (sole of the rat paws; [5]): ++++; grade of skin lesion (erythema), Immediately after administration (sole of the rat paws; [5]): ++; grade of skin lesion (erythema), 1 hour after administration (sole of the rat paws; [6]): ++++; grade of skin lesion (erythema), 2 hours after administration (sole of the rat paws; [6]): ++++; grade of skin lesion (erythema), Immediately after administration (sole of the rat paws; [6]): ++; Inflammation (H&E), BA % (w/v) 1.0 ([2]; injected rat paw): ++; Inflammation (H&E), BA % (w/v) 2.5 ([2]; injected rat paw): +++; Inflammation (H&E), BA % (w/v) 5.0 ([2]; injected rat paw): +++; degree of inflammation (H&E) in words [2]: Moderate
